Results as given in patent US6355657B1, “System for percutaneous delivery of opioid analgesics” (Atrix Laboratories, Inc., priority 1998, dated 2002).
Several values for one entry are separate records, joined by “and”; a condition that tells them apart may be missing. Identical values can stand only once. Counter-ions that a name gives are not always drawn. Like-named read-outs stand apart in the source and are kept apart here.

How the values were obtained:
[1] = Solubility of loperamide hydrochloride in solvents and solvent mixtures (titration to cloud point, HPLC of saturated solutions); type: physicochemical
Protocol: The solubility studies of loperamide hydrochloride were initiated using the formulation systems shown in Table I through multiple titrations confirmned by HPLC analysis of saturated solutions. For systems having at least 5% loperamide hydrochloride solubility, the transport of loperamide hydrochloride across the skin was characterized by 500 μL and 20 μL dosing of excised human cadaver skin using a Franz in vitro skin diffusion cell.
Solvent systems were mixed according to weight. For combinations of solvents that were single phase, loperamide hydrochloride was added in 0.1% increments until the system clouded. This was taken as the approximate saturation value for loperamide hydrochloride in that system. The system was then allowed to remain undisturbed for at least 24 hours. Often large crystals of loperamide hydrochloride would form upon standing. This solution was then filtered, appropriately diluted and assayed according to the HPLC method described below.

[2] = cited from earlier work
[3] = Solubility of loperamide hydrochloride in the receptor solution (spiked receptor solutions); type: physicochemical; details: 10% (v/v) N-methyl-2-pyrrolidone in water
Description: The receptor solution was 10% (v/v) N-methyl-2-pyrrolidone in water.

With CN(C)C(=O)C(CCN1CCC(O)(c2ccc(Cl)cc2)CC1)(c1ccccc1)c1ccccc1 [loperamide hydrochloride, 4-(p-chlorophenyl)-4-hydroxy-N,N-dimethyl-α,(α-diphenyl-1-piperidinebutyramide hydrochloride] the loperamide hydrochloride solubility ([1]; 1:1:1 propylene glycol:ethanol:ethyl acetate) was “greater than 5 % (w/w)”, the loperamide hydrochloride solubility ([1]; 1:1:4:3 N-methyl-2-pyrrolidone:propylene glycol:alcohol:water) was “greater than 6 % (w/w)” and the loperamide hydrochloride solubility ([1]; 1:1:4:5 N-methyl-2-pyrrolidone:ethyl acetate:ethanol:water) was “greater than 5 % (w/w)”. For the same compound, the loperamide hydrochloride solubility ([1]; 10% (v/v) water, 18% (v/v) N-methyl-2-pyrrolidone and 72% (v/v) ethanol ternary blend (FIG. 4)) was 19 % (w/w), the loperamide hydrochloride solubility ([1]; 60/40 propylene glycol/ethyl acetate solvent blend (FIG. 2)) was 18 % (w/w) and the loperamide hydrochloride solubility ([1]; combination of propylene carbonate and ethanol, ratio not stated (FIG. 1)) was “exceeded 20 % (w/w)”. For the same compound, the “loperamide hydrochloride in solution” value ([1]; formulations of mixtures of water, alcohols and organic solvents, ambient temperatures) was “up to 30 % (w/w)”, the loperamide hydrochloride solubility ([1]; most non-aqueous organic solvents (exceptions NMP, propylene glycol, ethanol)) was “less than 1 % (w/w)” and the “Loperamide hydrochloride Solubility (w/w)” value ([1]; solvent Ethanol, hydrochloride) was 10 % (w/w). For the same compound, the “Loperamide hydrochloride Solubility (w/w)” value ([1]; solvent Isopropyl Myristate) was 0.001% (w/w), the “Loperamide hydrochloride Solubility (w/w)” value ([1]; solvent N-methyl-2-pyrrolidone, hydrochloride) was 16 % (w/w) and the “Loperamide hydrochloride Solubility (w/w)” value ([1]; solvent Propylene Glycol, hydrochloride) was 9 % (w/w) and 8 % (w/w). The loperamide hydrochloride solubility ([1]; the solvents of Table 1 except N-methyl-2-pyrrolidone, ethanol and propylene glycol) was ≤ 0.5 % (w/w), the solubility ([2]; 2-butanone) was 0.18 grams per 100 mL solvent and the solubility ([2]; 2-propanol) was 1.11 grams per 100 mL solvent. The solubility ([2]; 4-methyl-2-pentanone) was 0.020 grams per 100 mL solvent, the solubility ([2]; N,N-dimethylformamide) was 10.3 grams per 100 mL solvent and the solubility ([2]; acetone) was 0.20 grams per 100 mL solvent. The solubility ([2]; citrate-phosphate buffer (pH 6.1)) was 0.008 grams per 100 mL solvent, the solubility ([2]; citrate-phosphate buffer (pH 7.9)) was “less than 0.001 grams per 100 mL solvent” and the solubility ([2]; dichloromethane) was 35.1 grams per 100 mL solvent. For the same compound, the solubility ([2]; diethyl ether) was “less than 0.001 grams per 100 mL solvent”, the solubility ([2]; dimethylsulfoxide) was 20.5 grams per 100 mL solvent and the solubility ([2]; ethanol) was 5.37 grams per 100 mL solvent. For the same compound, the solubility ([2]; ethyl acetate) was 0.035 grams per 100 mL solvent, the solubility ([2]; hexane) was “less than 0.001 grams per 100 mL solvent” and the solubility ([2]; methanol) was 28.6 grams per 100 mL solvent. For the same compound, the solubility ([2]; polyethylene glycol 400) was 1.40 grams per 100 mL solvent, the solubility ([2]; propylene glycol) was 5.64 grams per 100 mL solvent and the solubility ([2]; tetrahydrofuran) was 0.32 grams per 100 mL solvent. The solubility ([2]; toluene) was 0.001 grams per 100 mL solvent, the solubility ([2]; water (at physiological pH)) was 0.002 grams per 100 mL solvent and the solubility ([2]; water (pH 1.7)) was 0.14 grams per 100 mL solvent. The “solubility of loperamide hydrochloride in receptor solution” value [3] was “greater than 380 ppm”.
